# Values of other authors in patent US8450339B2, “Compositions for treatment of common cold” (Takeda Pharma A/S, priority 2001, dated 2013).
# Where a name gives a salt, the structure may show the parent alone.
# Tests used:
# [1] = following administration
# [2] = aqueous solution
SMILES,Mean duration of effect [1] [h],"Stability optimum, pH [2]"
CC(C)[N+]1(C)[C@@H]2CC[C@H]1CC(OC(=O)C(CO)c1ccccc1)C2.[Br-] (some centres unmarked) [ipratropium bromide],6,–
Cc1cc(C(C)(C)C)cc(C)c1CC1=NCCN1 [xylometazoline hydrochloride],–,2
